Experimental data published in PMC5733478, “A Non-imaging High Throughput Approach to Chemical Library Screening at the Unmodified Adenosine-A3 Receptor in Living Cells” (Frontiers in Pharmacology, 2017).
Counter-ions that a name gives are not always drawn.

Each compound was assayed against T1, human A3AR (Homo sapiens, UniProt P0DMS8) (assay: LOPAC library primary screen: single concentration (10 μM) inhibition of 25 nM CA200645 binding, PHERAstar FS). Settings: not given.
T1 construct: expressed in transfected cells
T1 sequence (P0DMS8 1-318): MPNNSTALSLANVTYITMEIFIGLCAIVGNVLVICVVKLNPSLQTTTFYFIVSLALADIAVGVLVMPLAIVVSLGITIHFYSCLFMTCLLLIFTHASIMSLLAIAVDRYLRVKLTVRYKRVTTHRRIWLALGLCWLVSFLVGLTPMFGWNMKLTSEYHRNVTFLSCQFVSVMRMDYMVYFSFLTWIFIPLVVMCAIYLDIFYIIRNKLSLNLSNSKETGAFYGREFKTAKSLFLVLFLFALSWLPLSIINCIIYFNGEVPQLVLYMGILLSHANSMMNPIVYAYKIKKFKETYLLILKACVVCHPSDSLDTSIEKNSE

Row | SMILES | % 25 nM CA200645 binding [%]
1 | CN(C(=O)Cc1ccc(Cl)c(Cl)c1)C(CN1CCCC1)c1cccc(OCC(=O)O)c1.Cl (stereo not shown) [ICI 204,448 hydrochloride] | 104.6 ± 7.5
2 | CN1CC(=O)NC1=NC(=O)Nc1cccc(Cl)c1 [Fenobam] | 81.9 ± 15.0
3 | NC(CO)C(=O)NNCc1ccc(O)c(O)c1O (stereo not shown) [Benserazide hydrochloride] | 98.9 ± 5.3
4 | N=C(N)NC(CCC(=O)O)C(=O)O (stereo not drawn) [alpha-Guanidinoglutaric acid] | 76.4 ± 9.5
5 | CCCCCN(C)CCC(O)(P(=O)([O-])O)P(=O)(O)O.[Na+] [Ibandronate sodium] | 95.5 ± 10.4
6 | CCN(CC)CC#CCOC(=O)C(O)(c1ccccc1)C1CCCCC1 (stereo not shown) [Oxybutynin Chloride] | 101.0 ± 12.8
7 | COc1cc2c(CCNC(C)=O)c[nH]c2cc1O [6-Hydroxymelatonin] | 94.1 ± 9.8
8 | C=CCn1c(=O)c2c(nc(-c3ccc(S(=O)(=O)O)cc3)n2C)n(C)c1=O | 97.5 ± 9.3
9 | CC(C)(Oc1ccc(C2CC2(Cl)Cl)cc1)C(=O)O (stereo not shown) [Ciprofibrate] | 98.7 ± 5.2
10 | O=C(O)CCC(C(=O)O)N1C(=O)c2ccccc2C1=O [L-Glutamic acid, N-phthaloyl-] | 89.4 ± 32.8
11 | O=C(O)[C@H]1CCCN[C@H]1C(=O)O (racemic) [(±)-cis-Piperidine-2,3-dicarboxylic acid] | 99.4 ± 1.9
12 | Cc1ccc(=O)n(-c2ccccc2)c1 [Pirfenidone] | 96.4 ± 15.8
13 | Nc1nc(Cl)nc2c1ncn2[C@@H]1O[C@H](CO)[C@@H](O)[C@H]1O [2-Chloroadenosine] | 51.0 ± 6.7
14 | Cl.NCC(O)c1cc(O)c(O)cc1F (stereo not shown) [6-Fluoronorepinephrine hydrochloride] | 77.6 ± 28.4
15 | CN(C)CCOC(=O)COc1ccc(Cl)cc1 [Centrophenoxine hydrochloride] | 90.4 ± 28.8
16 | S=C([S-])OC1CC2CC1C1CCCC21.[K+] [D-609 potassium] | 95.5 ± 4.1
17 | O=c1[nH]c2cc(C(F)(F)F)ccc2n1-c1cc(C(F)(F)F)ccc1O [NS-1619] | 94.9 ± 11.8
18 | OC[C@H]1OC(n2cnc3ccccc32)[C@H](O)[C@@H]1O (stereo partly drawn) [D-ribofuranosylbenzimidazole] | 98.4 ± 15.0
19 | CN1Cc2c(N)cccc2C(c2ccccc2)C1 (stereo not shown) [Nomifensine maleate] | 98.5 ± 14.7
20 | Oc1cccc2c(O)nccc12 [1,5-Isoquinolinediol] | 97.2 ± 4.1
21 | NS(=O)(=O)c1cc2c(cc1Cl)N=CNS2(=O)=O [Chlorothiazide] | 107.7 ± 8.4
22 | Nc1ccn([C@@H]2O[C@H](CO)[C@@H](O)C2(F)F)c(=O)n1 [Gemcitabine hydrochloride] | 106.0 ± 4.9

Row | SMILES | % 25 nM CA200645 binding [%]
23 | NC(=O)C1=CN([C@@H]2O[C@H](COP(=O)([O-])OP(=O)([O-])OC[C@H]3O[C@@H](n4cnc5c(N)ncnc54)[C@H](OP(=O)([O-])[O-])[C@@H]3O)[C@@H](O)[C@H]2O)C=CC1.[Na+].[Na+].[Na+].[Na+] [NADPH tetrasodium] | 112.0 ± 13.1
24 | CC(=O)CCCCn1c(=O)c2c(ncn2C)n(C)c1=O [Pentoxifylline] | 81.9 ± 17.4
25 | COc1cc(/C=C(\C#N)C(=O)Nc2nnc(C(F)(F)F)s2)ccc1OCc1ccc(C(F)(F)F)cc1C(F)(F)F [XCT790] | 87.7 ± 9.0
26 | Cc1ccc(S(=O)(=O)NC(=O)NN2CCCCCC2)cc1 [Tolazamide] | 109.2 ± 9.0
27 | c1ccc2c(c1)CC(N1CCN(c3cccc4c3OCCO4)CC1)C2 [S15535] | 97.0 ± 1.3
28 | CCN(CC)CCCCNc1ncc2cc(-c3c(Cl)cccc3Cl)c(NC(=O)NC(C)(C)C)nc2n1 [PD-161570] | 90.7 ± 9.1
29 | N.N.N.Nc1ncnc2c1ncn2C1OC(COP(=O)(O)OP(=O)(O)OP(=O)(O)OP(=O)(O)OC[C@H]2O[C@@H](n3cnc4c(N)ncnc43)C(O)C2O)[C@@H](O)C1O (stereo in doubt) | 101.2 ± 10.2
30 | CC(C)NCC(O)c1cc(O)cc(O)c1.CC(C)NCC(O)c1cc(O)cc(O)c1.O=S(=O)(O)O (stereo not shown) [Metaproterenol hemisulfate] | 102.0 ± 5.4
31 | COc1ccc2cc([C@H](C)C(=O)[O-])ccc2c1.[Na+] [(-)-Naproxen sodium] | 97.8 ± 4.0
32 | NC(=O)CI [Iodoacetamide] | 101.9 ± 8.2
33 | CC[C@H](NC(=O)c1c(C)c(-c2ccccc2)nc2ccccc12)c1ccccc1 [SB 222200] | 76.8 ± 5.5
34 | Cc1c(OCC(F)(F)F)ccnc1C[S+]([O-])c1nc2ccccc2[nH]1 (stereo not shown) [Lansoprazole] | 100.3 ± 13.0
35 | CN(C)CCC=C1c2ccccc2COc2ccccc21 [Doxepin hydrochloride] | 110.0 ± 13.2
36 | CN1C(=O)CC[C@H]1c1cccnc1 [(-)-Cotinine] | 106.5 ± 4.3
37 | CN(C)C/C=C(/c1ccc(Br)cc1)c1cccnc1 [Zimelidine dihydrochloride] | 92.5 ± 9.4
38 | Nc1ccc(N2C(=O)c3ccccc3C2=O)c(Cl)c1 [N-(4-Amino-2-chlorophenyl)phthalimide] | 91.1 ± 7.1
39 | Cc1cccc(C)c1OCC(C)N.Cl (stereo not shown) [Mexiletene hydrochloride] | 99.4 ± 6.9
40 | Fc1ccc(C(c2ccc(F)cc2)N2CCN(C/C=C/c3ccccc3)CC2)cc1 [Flunarizine dihydrochloride] | 102.1 ± 8.8
41 | CC1COc2c(N3CCN(C)CC3)c(F)cc3c(=O)c(C(=O)O)cn1c23 (stereo not shown) [Ofloxacin] | 93.4 ± 20.0
42 | CNc1ncnc2c1ncn2[C@@H]1O[C@H](CO)[C@@H](O)[C@H]1O [N6-Methyladenosine] | 61.1 ± 11.7
43 | CCc1c(C)[nH]c2c1C(=O)C(CN1CCOCC1)CC2 (stereo not shown) [Molindone hydrochloride] | 91.2 ± 7.2
44 | O=[N+]([O-])c1cccc2cn[nH]c12 [7-Nitroindazole] | 126.0 ± 15.1

Same assay, conditions: % of control wells (1% DMSO and 25 nM CA200645); compounds at 10 µM; […]; mean ± SD, three experiments in duplicate

Row | SMILES | % 25 nM CA200645 binding [%]
45 | CN1CCN(C2Cc3ccccc3Sc3ccc(Cl)cc32)CC1.O=C(O)/C=C\C(=O)O (racemic) [(±)-Octoclothepin maleate] | 83.2 ± 25.2

Same assay, conditions: % of control wells (1% DMSO and 25 nM CA200645); compounds at 10 µM; whole live cells expressing the A3AR; mean ± SD, three experiments in duplicate

Row | SMILES | % 25 nM CA200645 binding [%]
46 | CO[C@H]1O[C@@H]2O[C@@]3(C)CC[C@H]4[C@H](C)CC[C@@H]([C@H]1C)[C@@]24OO3 [Artemether] | 99.4 ± 9.9

Same assay, conditions: compounds tested at 10 µM; % of control wells (1% DMSO and 25 nM CA200645); […]; mean ± SD, three experiments in duplicate

Row | SMILES | % 25 nM CA200645 binding [%]
47 | COc1cc(C(O)CN)ccc1O.Cl (racemic) [(±)-Normetanephrine hydrochloride] | 95.5 ± 24.8

Same assay, conditions: compounds tested at 10 µM; % of control wells (1% DMSO and 25 nM CA200645); whole live cells expressing the A3AR; mean ± SD, three experiments in duplicate

Row | SMILES | % 25 nM CA200645 binding [%]
48 | Nc1ncnc2c1ncn2[C@@H]1O[C@H](CO)[C@@H](O)[C@H]1O [adenosine] | 92.3 ± 7.9
49 | CNS(=O)(=O)CCc1ccc2[nH]cc(C3CCN(C)CC3)c2c1 [Naratriptan hydrochloride] | 102.9 ± 17.6
50 | CCCCN(CCCC)CC(O)c1cc(Cl)cc2c1-c1ccc(Cl)cc1/C2=C/c1ccc(Cl)cc1 (stereo not shown) [Lumefantrine] | 94.4 ± 10.9
51 | CCCCCCCCCCCCCCSCC(=O)O [Tetradecylthioacetic acid] | 101.3 ± 12.1
52 | CSC(N)=NCCC[C@H](N)C(=O)O [S-Methyl-L-thiocitrulline acetate] | 102.0 ± 13.0
